Test results taken from patent publication US20250092058A1 (priority 2018, published 2025).

Tests used:
[1] = Oral PK in SW620/HT29 tumor-bearing SCID mice; conditions: 1.5 mg/kg oral, HPβCD aqueous suspension
Method: Tumor tissues and blood samples were collected at a series of time points of 30 minutes, 1 hour, 4 hours, 12 hours and 24 hours. Each tumor tissue was collected in a tube and immediately frozen with liquid nitrogen; each blood sample was collected in a Li-Heparin LH/1.3 tube ([sequence]), and plasma was recovered by centrifugation (1500 rpm×2 minutes). The collected plasma from each blood sample was transferred into a new tube and immediately frozen in liquid nitrogen. Liquid nitrogen-frozen specimens were then transferred to an −80° C. freezer for analysis.
Drug in plasma is extracted with acidified methanol. An 800 μL aliquot of ice-cold acidified methanol is added to 200 μL plasma and vortexed for 15 sec. […] An 800 μL aliquot of ice-cold acidified methanol is added to 200 μL homogenized tissue and then vortexed for 1 min. The samples are then centrifuged at 13,000 rpm for 5 min. and the supernatant is transferred to a clean 13×100 mm glass tube. Samples are dried under vacuum and stored at −20° C. until analysis. […] Analysis is carried out using an Acquity UPLC system with Fluorescence detection interfaced with Empower software. […] The fluorescence detector is set at the following Excitation (Ex) and Emissions (Em) wavelengths: Ex 370 nm Em 510 nm. […] QC samples are analyzed with each curve.

PANC1, Mia2, BxPC-3 = assay: MTT viability of pancreatic cancer cells; type: cell-based, human; conditions: 72 h, nM level
Method: MTT assays. […] Each experiment was performed at least in triplicate.
Next, we determined whether FL118-mediated inhibition of antiapoptotic proteins and induction of pro-apoptotic proteins shown in FIG. 1 would be accompanied by induction of apoptosis and cell killing.

ABCG2 and Pgp = assay: Efflux transporter substrate studies; type: in vitro ADME
HeLa = type: cell-based, human; conditions: Table 13; MTT; HeLa cervical cancer
[2] = system: CD44 stem cell marker-positive PANC1 cells; assay: CD44-positive PANC1 colony formation; type: cell-based, human
Method: CD44 positive cell sorting and CD44-positive cell colony formation. CD44 positive (CD44+) cells were purified (sorted out) using fluorescence activated cell sorting (FACS). FITC-conjugated mouse anti-human CD44 was used in FACS purification of CD44+ PANC1 cells. Briefly, PANC1 cells were harvested by using 0.25% trypsin/0.02% EDTA. After re-suspension of the cells in cell-culture media, the cells were counted and washed in PBS with 2% FBS and collected by centrifugation. Add 10 μL FITC-CD44 antibody to 1 ml PBS containing 1 million cells and 2% of FBS for 30 minutes on ice. Following the antibody labeling, PANC1 cells were washed in PBS with 2% BSA before flow cytometric analysis was carried out on a BD FACSAria™ III cell sorter (BD Science, USA). […] Colonies were fixed, stained with crystal violet solution and images were taken before counting colonies on day 12. The experimental results were expressed as the mean±SD. The statistical significance of differences was determined by Student's t-test between two groups.
To further confirm these findings, we alternatively used the typical matrigel-based CSC sphere formation assay which is know to more closely mimic in vivo situations. In this assay only drug resistant stem-like cancer cells are able to form spheres. […] We performed colony formation of CD44 stem cell marker-positive cells using the stem-cell culture condition. […]

HepG2 = type: cell-based, human; conditions: Table 13; MTT; HepG2 liver cancer
A549 = type: cell-based, human; conditions: Table 13; MTT; A549 lung cancer
FL118 MTD in SCID mice = type: in vivo
ERCC6, γ-H2AX = assay: Western blots of DNA damage/repair proteins in PANC1; type: cell-based, human
Method: Western blotting/Immunoblotting. […] Fifty μg total protein from each sample were heated at 95° C. for 5 minutes after mixing with equal volume of 2×SDS loading buffer. Samples were separated on 12-15% SDS-polyacrylamide gel electrophoresis (SDS-PAGE) gels and electrotransferred to Pure Nitrocellulose Membranes (Bio-Rad, Hercules, CA). The membrane was then blocked in 5% skim milk in TBS-T buffer (20 mM Tris/HCl pH 7.5, 0.137 M NaCl, and 0.1% Tween 20) at room temperature for 2-3 hours. Next, the membrane was incubated with different primary antibodies in TBS-T containing 5% BSA overnight at 4° C. in the range of dilutions from 1:500 to 1:2000. After washing with TBS-T, the membrane was incubated in TBS-T buffer containing 5% skim milk and corresponding secondary antibody (1:5000) for 45-60 minutes at room temperature with shaking. Protein of interest was detected using Western Lightning Plus—ECL (Perkin Elmer, Waltham, MA) and visualized by various times (3-120 seconds) of exposure. Actin was detected as the internal control to normalize total protein loading for each sample.

[3] = calculated from SCID mouse MTD
PDX10978 = assay: Pancreatic cancer PDX10978 in SCID mice; type: in vivo
Method: (§1) Human pancreatic cancer patient-derived xenograft (PDX) tumor mouse model and treatment. Experiments followed the IACUC-approved mouse protocol. Briefly, human PDAC PDX tumors maintained on SCID mice were isolated, and a piece of non-necrotic tumor tissues (30-40 mg) were subcutaneously transplanted into the flank area of female SCID mice. […] In this study, we used the timesaving intraperitoneal (ip) route for drug administration. […] The formulation process was described in detail in our previous patent (PCT/US2011/058558). […] Tumor length (L) and width (W) were measured using digital vernier calipers 1-3 times per week until the end of experimental studies. The tumor volume (v) was calculated using the formula: v=0.5 (L×W^2). Then the tumor size was divided by the day 0 tumor size as percentage tumor size versus day 0. The mean tumor volume ± standard deviation (SD) at each time point was derived from 5 mice in each group. The tumor curves were made using Sigma Plot software.
(§2) It has been recently documented that pancreatic cancer PDXs retain active paracrine/Hedgehog signaling, and desmoplasia is active in PDX tumor mouse models.

PDX17624 = assay: Pancreatic cancer PDX17624 in SCID mice; type: in vivo; conditions: 5 mg/kg ip qw×4
Method: as §1, §2

[4] = BALB/cj mice, FL118 MTD 10 mg/kg oral qw×4
[5] = BALB/cj mouse serum, FL118 MTD 10 mg/kg oral qw×4

Which results are given for CC[C@@]1(O)C(=O)OCc2c1cc1n(c2=O)Cc2cc3cc4c(cc3nc2-1)OCO4 [FL118, 10,11-methylenedioxy-camptothecin]?
tolerability (10 mg/kg oral qw×4): well tolerated; BASO [4]: 0 K/μL; EOS [4]: 0.01-0.1 K/μL; HCT [4]: 26.1-30.9%; HGB [4]: 8.9 to 10.8 g/dL; LYM [4]: 0.06-0.17 K/μL; MCH [4]: 14.8 to 15.3 pg; MCHC [4]: 33.7 to 36 g/dL; MCV [4]: 41.9 to 43.9 fL; MONO [4]: 0.03-0.12 K/μL; MPV [4]: 8.1 to 8.6 fL; NEUT [4]: 0.03-0.5 K/μL; PDW [4]: 13.8 to 14.4 fL; PLT [4]: 487-1004 K/μL; RBC [4]: 6.01-7.04 M/μL; RDW-SD [4]: 23 to 24.8 fL; RET [4]: 0.67-4.49 K/μL; WBC [4]: 0.33-0.6 K/μL; ALB [5]: 1.7 to 2.2 g/dL; ALP [5]: 52-105 U/L; ALT [5]: 33-58 U/L; BUN [5]: 16 to 19 mg/dL; CHOL [5]: 91 to 109 mg/dL; CREA [5]: ≤0.1 mg/dL; Ca [5]: 8.1 to 9.4 mg/dL; GLU [5]: 87 to 185 mg/dL; PHOS [5]: 10 to 13.3 mg/dL; TBIL [5]: ≤0.1 to 0.3 mg/dL; TP [5]: 3.4 to 4.1 g/dL; body weight loss (≥12.5 mg/kg oral qw×4): > 20%; concentration in tumor versus serum [1]: many folds higher than those in serum; pancreatic cancer cell viability (PANC1, Mia2, BxPC-3): effectively inhibited pancreatic cancer cell viability; substrate of ABCG2 and Pgp (ABCG2 and Pgp): not a substrate of ABCG2 and Pgp; IC50 (HeLa): 34.7 ± 9.9 nM; colony formation ([2]; 1 nM): significantly inhibited colony formation; colony formation ([2]; 10 and 100 nM): completely eliminate colony formation; IC50 (HepG2): 68.5 ± 6.7 nM; IC50 (A549): 81.8 ± 14 nM; maximum tolerated dose (MTD) (FL118 MTD in SCID mice; oral formulation, tumor-bearing SCID mice, qw×4): 10 mg/kg; MTD (FL118 MTD in SCID mice; oral, q1d×5 and q2d×5): ~1.5 mg/kg; MTD (FL118 MTD in SCID mice; two doses in SCID mice, estimated): 12 mg/kg/dose; expression of ERCC6 and γ-H2AX (ERCC6, γ-H2AX): strongly decreased the expression of ERCC6 and induced γ-H2AX; calculated FL118 MTD for dogs [3]: 2 mg/kg; antitumor efficacy (PDX10978; 5 mg/kg ip qw×4): only able to delay PDX10978 tumor growth; antitumor efficacy, single agent (PDX10978; FL118 0.75 mg/kg or gemcitabine 60 mg/kg ip qw×4): only delayed tumor growth; antitumor efficacy (PDX17624): able to eliminate these PDX tumors after one cycle of treatment
